Active and inactive are the calls of the source.
Key:
[1] = biological target: Neuropeptide Y receptor type 1 (Homo sapiens, UniProt P25929); assay type: functional;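 also: HEK293 cells with a CNG channel challenged with NPY then isoproterenol; potency as antagonist that reverses NPY suppression of cAMP signal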
[2] = biological target: Neuropeptide Y receptor type 2 (Homo sapiens, UniProt P49146); assay type: functional, cell-based;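 also: HEK293 cells expressing the receptor and a CNG channel; stimulus was NPY near EC95 followed by isoproterenol to raise cAMP; antagonist potency measured as restoring cAMP signal that NPY suppresses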
[3] = biological target: Peroxisome proliferator-activated receptor gamma/Nuclear receptor coactivator 3 (Homo sapiens, UniProt P37231); assay type: functional;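 also: agonist potency for raising coactivator recruitment to the receptor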
Chain of Peroxisome proliferator-activated receptor gamma/Nuclear receptor coactivator 3 (P37231 whole entry): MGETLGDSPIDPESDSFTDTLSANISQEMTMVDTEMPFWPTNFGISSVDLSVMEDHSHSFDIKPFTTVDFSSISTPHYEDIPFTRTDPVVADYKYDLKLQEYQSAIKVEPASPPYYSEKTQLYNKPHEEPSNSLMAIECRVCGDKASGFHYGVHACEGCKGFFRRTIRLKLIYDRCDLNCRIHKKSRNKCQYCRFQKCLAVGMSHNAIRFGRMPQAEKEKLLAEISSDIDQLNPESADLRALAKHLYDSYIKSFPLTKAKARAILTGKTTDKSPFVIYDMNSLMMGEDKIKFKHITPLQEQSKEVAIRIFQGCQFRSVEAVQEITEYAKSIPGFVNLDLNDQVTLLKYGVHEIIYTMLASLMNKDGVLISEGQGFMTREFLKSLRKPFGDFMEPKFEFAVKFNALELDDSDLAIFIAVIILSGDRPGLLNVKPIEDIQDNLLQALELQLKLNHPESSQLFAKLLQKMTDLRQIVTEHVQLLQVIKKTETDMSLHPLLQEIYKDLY
Chain of Peroxisome proliferator-activated receptor gamma/Nuclear receptor coactivator 3 (Q9Y6Q9 whole entry, further chain): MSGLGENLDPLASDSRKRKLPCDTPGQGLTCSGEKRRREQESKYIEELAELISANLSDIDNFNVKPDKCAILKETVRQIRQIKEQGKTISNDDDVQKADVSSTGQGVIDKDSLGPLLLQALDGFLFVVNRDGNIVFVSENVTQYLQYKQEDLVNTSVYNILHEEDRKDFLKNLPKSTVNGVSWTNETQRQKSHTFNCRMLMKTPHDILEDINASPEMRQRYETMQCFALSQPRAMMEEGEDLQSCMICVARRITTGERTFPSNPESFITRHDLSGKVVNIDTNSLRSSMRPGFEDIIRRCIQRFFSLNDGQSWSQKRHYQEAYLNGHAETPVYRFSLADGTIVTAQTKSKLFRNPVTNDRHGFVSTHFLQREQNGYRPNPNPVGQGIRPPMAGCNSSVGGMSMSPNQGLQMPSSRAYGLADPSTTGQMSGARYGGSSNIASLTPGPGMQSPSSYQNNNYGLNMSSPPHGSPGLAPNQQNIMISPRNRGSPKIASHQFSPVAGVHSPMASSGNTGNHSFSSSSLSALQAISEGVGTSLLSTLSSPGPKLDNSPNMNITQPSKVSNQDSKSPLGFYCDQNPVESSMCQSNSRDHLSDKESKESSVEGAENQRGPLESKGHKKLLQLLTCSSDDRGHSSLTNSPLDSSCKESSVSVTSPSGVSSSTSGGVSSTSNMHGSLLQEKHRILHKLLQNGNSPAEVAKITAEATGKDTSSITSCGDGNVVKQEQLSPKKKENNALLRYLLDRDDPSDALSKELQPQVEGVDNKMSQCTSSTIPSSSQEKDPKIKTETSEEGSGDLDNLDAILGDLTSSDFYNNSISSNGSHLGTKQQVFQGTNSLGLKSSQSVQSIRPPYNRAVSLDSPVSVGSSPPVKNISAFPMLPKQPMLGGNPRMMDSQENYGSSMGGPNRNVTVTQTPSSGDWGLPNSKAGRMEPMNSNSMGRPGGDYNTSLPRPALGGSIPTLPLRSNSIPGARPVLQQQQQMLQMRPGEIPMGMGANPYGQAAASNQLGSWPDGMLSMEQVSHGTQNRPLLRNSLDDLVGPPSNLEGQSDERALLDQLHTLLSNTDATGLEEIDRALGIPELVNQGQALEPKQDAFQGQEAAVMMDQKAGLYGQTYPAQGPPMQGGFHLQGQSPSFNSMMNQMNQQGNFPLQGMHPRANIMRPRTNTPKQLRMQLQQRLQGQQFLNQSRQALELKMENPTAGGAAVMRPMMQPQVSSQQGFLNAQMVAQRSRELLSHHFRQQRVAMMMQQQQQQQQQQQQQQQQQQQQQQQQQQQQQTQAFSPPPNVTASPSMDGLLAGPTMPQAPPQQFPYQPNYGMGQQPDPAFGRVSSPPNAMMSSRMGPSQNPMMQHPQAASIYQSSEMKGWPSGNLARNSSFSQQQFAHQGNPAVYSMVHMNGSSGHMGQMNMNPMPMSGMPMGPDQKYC

[4] = biological target: Peroxisome proliferator-activated receptor gamma/Nuclear receptor coactivator 1 (Homo sapiens, UniProt P37231); assay type: functional;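 also: agonist potency as compounds enhance coactivator SRC-1 recruitment to PPARgamma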
[5] = biological target: Peroxisome proliferator-activated receptor gamma/Nuclear receptor coactivator 2 (Homo sapiens, UniProt P37231); assay type: functional;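 also: agonist potency for raising coactivator recruitment to the receptor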
Chain of Peroxisome proliferator-activated receptor gamma/Nuclear receptor coactivator 2 (P37231 whole entry): as the sequence (P37231 whole entry) above
Chain of Peroxisome proliferator-activated receptor gamma/Nuclear receptor coactivator 2 (Q15596 whole entry, further chain): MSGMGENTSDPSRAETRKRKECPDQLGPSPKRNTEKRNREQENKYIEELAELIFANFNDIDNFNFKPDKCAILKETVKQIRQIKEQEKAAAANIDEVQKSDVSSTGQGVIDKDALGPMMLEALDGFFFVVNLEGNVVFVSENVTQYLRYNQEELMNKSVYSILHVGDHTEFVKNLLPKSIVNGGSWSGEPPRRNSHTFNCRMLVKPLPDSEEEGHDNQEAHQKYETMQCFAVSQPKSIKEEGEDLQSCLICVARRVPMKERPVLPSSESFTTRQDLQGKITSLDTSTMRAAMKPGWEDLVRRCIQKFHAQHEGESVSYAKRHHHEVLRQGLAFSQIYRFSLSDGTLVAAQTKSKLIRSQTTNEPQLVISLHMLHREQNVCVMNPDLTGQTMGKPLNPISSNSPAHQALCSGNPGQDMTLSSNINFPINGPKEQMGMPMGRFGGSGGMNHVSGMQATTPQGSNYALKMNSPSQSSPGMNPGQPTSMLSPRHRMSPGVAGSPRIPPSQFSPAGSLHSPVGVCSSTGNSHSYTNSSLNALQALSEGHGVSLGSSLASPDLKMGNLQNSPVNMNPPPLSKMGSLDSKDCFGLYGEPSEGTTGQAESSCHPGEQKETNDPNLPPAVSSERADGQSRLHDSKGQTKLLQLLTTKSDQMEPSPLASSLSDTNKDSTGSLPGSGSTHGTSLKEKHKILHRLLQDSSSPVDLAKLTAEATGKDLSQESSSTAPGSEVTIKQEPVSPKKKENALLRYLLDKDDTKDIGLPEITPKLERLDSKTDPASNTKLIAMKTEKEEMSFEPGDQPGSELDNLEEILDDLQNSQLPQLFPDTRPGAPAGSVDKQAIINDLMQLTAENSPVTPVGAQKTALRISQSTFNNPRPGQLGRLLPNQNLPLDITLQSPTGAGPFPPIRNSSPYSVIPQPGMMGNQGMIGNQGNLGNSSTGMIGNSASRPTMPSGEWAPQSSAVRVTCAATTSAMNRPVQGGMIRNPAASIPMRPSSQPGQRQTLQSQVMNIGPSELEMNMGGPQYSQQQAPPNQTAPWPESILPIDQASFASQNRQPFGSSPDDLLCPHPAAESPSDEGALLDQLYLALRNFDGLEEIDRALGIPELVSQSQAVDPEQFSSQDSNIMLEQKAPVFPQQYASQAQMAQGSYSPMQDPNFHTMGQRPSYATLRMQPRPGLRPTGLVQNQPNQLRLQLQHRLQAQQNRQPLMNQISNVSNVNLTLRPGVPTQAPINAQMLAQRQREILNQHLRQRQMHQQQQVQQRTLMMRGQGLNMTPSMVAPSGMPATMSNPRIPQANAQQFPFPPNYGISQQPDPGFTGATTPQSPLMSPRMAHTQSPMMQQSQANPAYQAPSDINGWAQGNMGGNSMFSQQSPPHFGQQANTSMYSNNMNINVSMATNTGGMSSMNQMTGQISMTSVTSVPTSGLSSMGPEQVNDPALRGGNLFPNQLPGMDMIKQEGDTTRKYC

[6] = cells
[7] = biological target: Wee1-like protein kinase (Homo sapiens, UniProt P30291); experiment: Dose Response Cell-based Assay for Inhibitors of Wee1 Degradation. [Related pubchem assays: 1410, 1321 ]; assay type: functional
Chain of Wee1-like protein kinase (P30291 whole entry, the tested form may be a part): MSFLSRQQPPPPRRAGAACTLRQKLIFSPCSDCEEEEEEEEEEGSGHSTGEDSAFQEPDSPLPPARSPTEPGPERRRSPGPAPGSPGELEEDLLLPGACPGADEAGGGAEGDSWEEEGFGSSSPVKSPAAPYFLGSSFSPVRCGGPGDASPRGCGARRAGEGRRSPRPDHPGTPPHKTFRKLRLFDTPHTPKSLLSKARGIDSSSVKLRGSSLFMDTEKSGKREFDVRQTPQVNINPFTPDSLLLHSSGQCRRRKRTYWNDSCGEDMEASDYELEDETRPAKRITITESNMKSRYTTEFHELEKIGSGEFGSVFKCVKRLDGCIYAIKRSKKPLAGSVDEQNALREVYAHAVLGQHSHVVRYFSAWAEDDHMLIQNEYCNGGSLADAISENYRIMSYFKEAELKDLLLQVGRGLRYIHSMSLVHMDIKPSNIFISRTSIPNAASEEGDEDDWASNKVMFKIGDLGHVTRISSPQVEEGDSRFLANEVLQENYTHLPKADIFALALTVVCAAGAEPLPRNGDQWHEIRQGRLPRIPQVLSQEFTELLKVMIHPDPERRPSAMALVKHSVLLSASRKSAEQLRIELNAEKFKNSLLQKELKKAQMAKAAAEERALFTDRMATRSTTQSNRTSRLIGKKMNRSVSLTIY

[8] = biological target: T1, Oxysterols receptor LXR-beta (Homo sapiens, UniProt P55055); assay type: functional, cell-based;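 also: Cell-based luminescence dose-response assay of agonist activity at LXR, run as a confirmatory counterscreen to a daf-12 agonist screen; agonist potency from rising luciferase signal of a Gal4-LXR reporter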
T1 sequence (P55055 whole entry): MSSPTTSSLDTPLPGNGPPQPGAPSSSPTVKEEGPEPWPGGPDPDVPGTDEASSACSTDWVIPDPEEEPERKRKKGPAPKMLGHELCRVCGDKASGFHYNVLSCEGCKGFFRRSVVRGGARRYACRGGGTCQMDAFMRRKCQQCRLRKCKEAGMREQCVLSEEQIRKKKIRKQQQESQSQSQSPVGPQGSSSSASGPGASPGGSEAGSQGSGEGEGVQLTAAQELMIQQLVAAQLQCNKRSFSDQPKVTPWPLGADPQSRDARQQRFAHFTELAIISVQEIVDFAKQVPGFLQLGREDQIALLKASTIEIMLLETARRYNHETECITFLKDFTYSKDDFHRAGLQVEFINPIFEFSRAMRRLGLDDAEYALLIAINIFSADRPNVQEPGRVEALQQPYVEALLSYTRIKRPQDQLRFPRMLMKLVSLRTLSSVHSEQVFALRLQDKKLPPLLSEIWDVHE

[9] = biological target: G2/mitotic-specific cyclin-B1 (Homo sapiens, UniProt P14635); experiment: Counterscreen assay for inhibitors of Wee1 degradation: dose response cell-based assay to identify inhibitors of cyclin B degradation. [Related pubchem assays: 1410, 1321 ]; assay type: functional
[10] = biological target: T1, Oxysterols receptor LXR-beta; experiment: LXR agonists, Gal4 luciferase reporter, dose response, counter-screen for ssDAF-12 agonist project, cell-based, luminescence, HEK293, S. stercoralis campaign (AID 720737); assay type: functional; conditions: read-out: IC50 (the source's name)
[11] = Luminescence-based cell-based high throughput dose response assay to identify activators of the DAF-12 from the parasite S. stercoralis (ssDAF-12).; assay type: functional
[12] = biological target: Procathepsin L (Homo sapiens, UniProt P07711)
[13] = biological target: Aspartyl aminopeptidase (Plasmodium falciparum 3D7, UniProt Q8I2J3)
[14] = biological target: T2, Estrogen receptor (Homo sapiens, UniProt P03372); experiment: potentiators of ERα–SRC-1 coactivator binding, dose response, biochemical, TR-FRET, ERα LBD (AID 737)
T2 sequence (P03372 whole entry): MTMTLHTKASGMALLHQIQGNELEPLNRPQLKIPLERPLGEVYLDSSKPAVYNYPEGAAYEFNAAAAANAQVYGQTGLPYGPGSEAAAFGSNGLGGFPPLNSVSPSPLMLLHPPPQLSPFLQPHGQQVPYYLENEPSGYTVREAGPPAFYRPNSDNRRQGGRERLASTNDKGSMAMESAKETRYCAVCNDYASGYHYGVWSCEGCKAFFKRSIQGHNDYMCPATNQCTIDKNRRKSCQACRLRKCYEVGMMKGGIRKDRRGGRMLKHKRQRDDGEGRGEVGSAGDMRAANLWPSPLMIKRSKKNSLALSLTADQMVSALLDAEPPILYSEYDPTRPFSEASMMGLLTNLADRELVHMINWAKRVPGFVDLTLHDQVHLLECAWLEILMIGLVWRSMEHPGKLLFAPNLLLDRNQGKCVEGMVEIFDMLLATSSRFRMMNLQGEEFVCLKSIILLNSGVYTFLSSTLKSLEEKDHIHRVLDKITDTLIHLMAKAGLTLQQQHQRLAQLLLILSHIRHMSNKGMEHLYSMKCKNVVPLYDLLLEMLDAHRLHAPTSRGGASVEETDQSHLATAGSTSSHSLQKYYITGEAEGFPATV

[15] = biological target: T3, Alkaline phosphatase, tissue-nonspecific isozyme (Homo sapiens, UniProt P05186)
T3 sequence (P05186 whole entry): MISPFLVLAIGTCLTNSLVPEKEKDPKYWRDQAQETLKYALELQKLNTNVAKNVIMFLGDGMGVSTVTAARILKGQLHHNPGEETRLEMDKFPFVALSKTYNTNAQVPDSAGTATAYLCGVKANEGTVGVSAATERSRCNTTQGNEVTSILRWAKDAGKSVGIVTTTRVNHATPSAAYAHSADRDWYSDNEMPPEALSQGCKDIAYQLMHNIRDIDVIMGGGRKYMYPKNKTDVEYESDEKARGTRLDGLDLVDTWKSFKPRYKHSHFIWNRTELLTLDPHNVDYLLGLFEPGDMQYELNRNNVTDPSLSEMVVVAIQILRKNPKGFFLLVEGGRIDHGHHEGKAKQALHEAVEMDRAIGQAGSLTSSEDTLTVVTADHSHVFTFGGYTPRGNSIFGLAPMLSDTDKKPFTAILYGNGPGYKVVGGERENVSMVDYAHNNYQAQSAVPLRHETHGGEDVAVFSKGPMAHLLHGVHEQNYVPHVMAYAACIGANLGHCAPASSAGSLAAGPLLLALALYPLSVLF

[16] = test system: HEK293; experiment: PMA/Ionomycin induced NF-kB luciferase assay in 293- NF-kB-Luc stable cells. [Related pubchem assays: 1299, 1270, 1295, 1375, 1287, 1281, 1293, 1291, 1289, 1280, 465, 1364, 1282, 1372, 1365, 1370, 1367, 1366, 1269, 1373, 1292, 1290, 1302, 1371, 1283, 1271, 1294, 1374, 1368, 1369 ]; assay type: functional, cell-based; conditions: Homo sapiens
[17] = test system: HEK293; experiment: Cytotoxicity assay in HEK293 cells. [Related pubchem assays (depositor defined):AID1266, AID1269, AID1270, AID1271, AID1280, AID1281, AID1282, AID1283, AID1287, AID1289, AID1290, AID1291, AID1292, AID1293, AID1294, AID1295, AID1299, AID1302, AID1364, AID1365, AID1366, AID1367, AID1369, AID1370, AID1371, AID1372, AID1373, AID1374, AID1375, AID1384 …; assay type: functional, cell-based; conditions: Homo sapiens
[18] = biological target: Luciferin 4-monooxygenase (Photinus pyralis, UniProt P08659); experiment: In vitro luciferase assay using purified luciferase. [Related pubchem assays: 1299, 1270, 1295, 1375, 1287, 1281, 1293, 1291, 1289, 1280, 465, 1364, 1282, 1372, 1365, 1370, 1367, 1366, 1266, 1373, 1292, 1290, 1302, 1371, 1283, 1271, 1294, 1374, 1368, 1369 ]
Chain of Luciferin 4-monooxygenase (P08659 whole entry): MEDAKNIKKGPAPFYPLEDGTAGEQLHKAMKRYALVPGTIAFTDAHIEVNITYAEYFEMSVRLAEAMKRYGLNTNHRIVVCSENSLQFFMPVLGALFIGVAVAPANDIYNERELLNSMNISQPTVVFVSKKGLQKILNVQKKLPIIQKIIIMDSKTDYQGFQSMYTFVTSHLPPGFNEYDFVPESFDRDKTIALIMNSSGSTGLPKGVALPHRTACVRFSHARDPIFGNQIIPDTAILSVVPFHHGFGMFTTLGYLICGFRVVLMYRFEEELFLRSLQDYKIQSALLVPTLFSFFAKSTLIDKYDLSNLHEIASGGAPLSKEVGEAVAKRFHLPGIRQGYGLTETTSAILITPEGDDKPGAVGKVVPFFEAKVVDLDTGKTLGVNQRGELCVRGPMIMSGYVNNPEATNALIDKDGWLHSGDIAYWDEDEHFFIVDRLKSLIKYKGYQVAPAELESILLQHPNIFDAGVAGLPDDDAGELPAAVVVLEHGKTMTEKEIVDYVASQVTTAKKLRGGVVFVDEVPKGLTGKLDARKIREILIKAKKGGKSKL

[19] = M. tuberculosis H37Rv growth inhibitors, H37Rv strain (AID 1626); assay type: functional
[20] = test system: Streptococcus; experiment: Group A Streptococcus viability loss, dose response, counter-screen for streptokinase expression inhibitor project, luminescence, BacTiterGlo (AID 1915); assay type: functional, organism-based;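 also: potency for reduction of bacterial viability or growth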
[21] = growth suppression of beta-catenin-knockout colon cells, dose response, cell-based, HCT116, human colon tumor (AID 1045); assay type: functional;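 also: HCT116 colon tumor cells with beta catenin knocked out; cells exposed to compound for 60 hours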
[22] = test system: Streptococcus sp. 'group A'; experiment: growth inhibition of control SK(-) GAS strain, dose response, counter-screen for streptokinase expression inhibitor project, luminescence, kanamycin, BacTiterGlo, confirmation (AID 1900); assay type: functional, organism-based
[23] = biological target: Serine/threonine-protein phosphatase (Homo sapiens, UniProt Q9BPW0); experiment: Counterscreen for inhibitors of PP1: fluorescence-based biochemical high throughput dose response assay to identify inhibitors of Protein Phosphatase 5 (PP5). [Related pubchem assays: 2034 (Summary (PP5 inhibitors)), 1987 (PP5 inhibitors in singlate), 2235 (PP1 inhibitors in singlate)]
[24] = biological target: T4, Streptokinase A (Streptococcus pyogenes serotype M1, UniProt P10520); experiment: S. pyogenes streptokinase expression inhibitors, potency, dose response, plasminogen activation absorbance, OD405 (AID 1914); assay type: functional, Streptococcus pyogenes M1 GAS;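 also: secreted streptokinase activity via plasminogen activation per viability signal from cell pellet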
T4 sequence (P10520 whole entry): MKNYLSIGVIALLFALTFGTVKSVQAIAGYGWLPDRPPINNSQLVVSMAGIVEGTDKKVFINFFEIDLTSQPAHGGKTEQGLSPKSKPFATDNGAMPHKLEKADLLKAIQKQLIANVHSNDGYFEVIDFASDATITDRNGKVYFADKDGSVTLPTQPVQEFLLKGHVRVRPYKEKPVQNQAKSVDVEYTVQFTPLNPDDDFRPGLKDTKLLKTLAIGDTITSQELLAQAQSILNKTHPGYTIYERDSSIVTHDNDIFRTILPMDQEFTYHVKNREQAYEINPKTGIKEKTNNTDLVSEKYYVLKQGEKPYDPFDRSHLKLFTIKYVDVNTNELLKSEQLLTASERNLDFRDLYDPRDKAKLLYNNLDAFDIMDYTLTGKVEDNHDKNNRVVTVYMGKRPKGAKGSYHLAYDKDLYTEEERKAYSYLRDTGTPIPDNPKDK

[25] = growth suppression of PTEN-null colon cells, dose response, cell-based, HCT116 PTEN knockout (AID 1047); assay type: functional;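 also: HCT116 colon tumor cells with PTEN knocked out; cells exposed to compound for 60 hours before readout; potency for loss of cell viability measured by luminescence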
[26] = biological target: Serine/threonine-protein phosphatase PP1-alpha catalytic subunit (Homo sapiens, UniProt P62136); experiment: PP1 phosphatase inhibitors, dose response, biochemical, fluorescence (AID 2403);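 also: phosphatase turnover of OMFP into fluorescent 3-O-methylfluorescein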
[27] = test system: Vero; experiment: cytotoxicity of synthesized analogs in Vero 76, SAR follow-up, cytotoxicity control for West Nile virus antiviral project, Vero 76 cells (AID 2414); assay type: functional; conditions: Chlorocebus sabaeus
[28] = test system: Vero; experiment: Vero E6 cell cytotoxicity, SAR follow-up, cytotoxicity control for West Nile virus antiviral project, synthesized analogs (AID 2244); assay type: functional; conditions: Chlorocebus sabaeus
[29] = test system: Vero; experiment: cytotoxicity of synthesized analogs in Vero cells, SAR follow-up, cytotoxicity control for West Nile virus antiviral project, cell-based, set II (AID 2402); assay type: functional; conditions: Chlorocebus sabaeus
[30] = A Cell Based Assay for the Identification of Probe candidate Compounds with Anti- Venezuelan Equine Encephalitis virus. [Related pubchem assays: 2409, 2419, 1621, 2238, 2405, 2024, 2065, 2402, 2414, 1635, 1650, 2244 ]; assay type: functional
[31] = biological target: Cytochrome P450 3A4 (Homo sapiens, UniProt P08684); conditions: Potency;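 also: confirmatory qHTS run detecting inhibitors and substrates of CYP3A4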
[32] = biological target: Cytochrome P450 2D6 (Homo sapiens, UniProt P10635); experiment: qHTS Assay for Inhibitors and Substrates of Cytochrome P450 2D6. [Related pubchem assays: 410 ]; assay type: ADME; conditions: read-out: Potency
[33] = HEp-2 cell cytotoxicity, dose response, cytotoxicity control for RSV inhibitor project, HTS (AID 2410); assay type: functional; conditions: human respiratory syncytial virus
[34] = inhibitors of Bluetongue virus cytopathic effect, confirmation, arbovirus, BSR cells (AID 1250); assay type: functional;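 also: protection from viral cytopathic effect measured as cell viability by ATP luminescence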

In the case of `COc1ccccc1OCCCCN1CCN(C(c2ccccc2)c2ccccc2)CC1`, the IC50 [1] is reported as > 35 µM (not active) and the IC50 [2] is reported as > 35 µM (not active).

In the case of `Cc1cc(=O)[nH]c2c1c(C)nn2C1CCCC1`, the EC50 [3] is reported as > 79.4 µM (not active), the EC50 [4] is reported as > 79.4 µM (not active) and the EC50 [5] is reported as > 79.4 µM (not active).

In the case of `CC(=O)Nc1ccc(/C=N/Nc2nc3ccccc3s2)cc1`, the EC50 [6] is reported as > 67.5 µM (inactive), the EC50 [7] is reported as > 49.7 µM (not active) and the EC50 [8] is reported as > 67.5 µM (inactive). For the same molecule, the EC50 [9] was > 49.7 µM (not active), the EC50 [10] was > 67.5 µM (inactive) and the IC50 [11] was > 67.5 µM (inactive).

With `COc1ccc(Cl)cc1NC(=O)Nn1cnnc1` the IC50 [12] was > 59.6 µM (not active) and the IC50 [13] was 0.832 µM (active).

With `O=C(Cn1ncc2c(=O)oc3ccccc3c21)Nc1nc2ccccc2s1` the EC50 [14] was 6.23 µM (active).

For `Cn1cc(Cl)c(C(=O)NNC(=S)NC2CCCCC2)n1`, the EC50 [15] was 41 µM (active).

For `COc1ccc(/C=N/NC(=O)c2n[nH]c3c2CCC3)cc1O`, the EC50 [16] was 4.21 µM (not active), the EC50 [17] was > 8 µM (inactive) and the EC50 [18] was > 8 µM (not active).

For `O=C(COC(=O)/C=C/c1nc2ccccc2s1)Nc1cccc(Cl)c1Cl`, the IC50 [19] was > 100 µM (active).

With `COc1cnc(-c2ccccn2)nc1Sc1ccc(Cl)cc1` the EC50 [20] was 15.3 µM (active), the EC50 [21] was 18.6 µM (active) and the EC50 [22] was 9.35 µM (active). For the same molecule, the IC50 [23] was > 67 µM (not active), the EC50 [24] was > 150 µM (not active) and the EC50 [25] was 21.6 µM (active). For the same molecule, the IC50 [26] was 6.47 µM (active).

With `COc1cccc(C(NC(=O)c2ccccc2)c2ccc3cccnc3c2O)c1` (centres undefined) the CC50 [27] was 6.07 µM (active), the CC50 [28] was 1.94 µM (active) and the CC50 [29] was 2.2 µM (active). For the same molecule, the IC50 [30] was 5.63 µM (active).

With `Cc1nc(/N=N\c2ccc(C(=O)O)cc2)c(COP(=O)(O)O)c(C=O)c1O` the AC50 [31] was 10 µM (inconclusive) and the AC50 [32] was 39.8 µM (inconclusive).

For `COc1ccc(-c2nc(NC(=O)c3nnc(O)c4ccccc34)sc2C)cc1`, the CC50 [33] was 40.5 µM (active) and the IC50 [34] was > 100 µM (active).

Reference: ChEMBL document CHEMBL1201862, “PubChem BioAssay data set” (2004)
